Results on 38 molecules are retold here after US20210369853A1, “TARGETED PROTEASE DEGRADATION PLATFORM” (EUBULUS BIOTHERAPEUTICS INC., priority 2018, published 2021).

Experiment [1] deals with Human Colon Cancer HCT-116. Put plainly: Cell proliferation experiment (Alarm blue, 72 h, EC50). The format is cell-based. The conditions noted are these: Homo sapiens, HCT-116; HCT116 cells. The gist of the method:
(§1)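 EC50 values derive from Alamar blue fluorescence measured after cells in 96-well plates were incubated 72 h with compound diluted 5-fold per step in complete medium.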

The subject of experiment [2] is Human Monocytic Leukemia MV4-11. The experiment is described as above. The format is cell-based. To be noted: Homo sapiens, MV4-11, MV4;11 cells. The gist of the method: as §1

In general, EC50 refers to the midpoint of the concentration-response curve. Higher therefore signals lower potency in that assay. On to `O=C1CCC(N2Cc3c(NC(=O)CCCNC(=O)c4ccc(Nc5ncc6c(n5)-c5ccc(Cl)cc5C(c5c(F)cccc5F)=NC6)cc4)cccc3C2=O)C(=O)N1` (stereo not drawn) [UB-180501], for which the EC50 is 100 to 1000 nM in experiment [1] and above 1000 nM in experiment [2].

Regarding `O=C1CCC(N2Cc3c(NC(=O)COCCCNC(=O)c4ccc(Nc5ncc6c(n5)-c5ccc(Cl)cc5C(c5c(F)cccc5F)=NC6)cc4)cccc3C2=O)C(=O)N1` (stereo not drawn) [UB-180502], the EC50 is 100 to 1000 nM in experiment [1] and 10 to 100 nM in experiment [2].

As to `O=C1CCC(N2Cc3c(NC(=O)COCCCCNC(=O)c4ccc(Nc5ncc6c(n5)-c5ccc(Cl)cc5C(c5c(F)cccc5F)=NC6)cc4)cccc3C2=O)C(=O)N1` (stereo not drawn) [UB-180503], the EC50 in experiment [1] and in experiment [2] was 100 to 1000 nM each time.

Consider `O=C1CCC(N2Cc3c(NC(=O)CCOCCOCCNC(=O)c4ccc(Nc5ncc6c(n5)-c5ccc(Cl)cc5C(c5c(F)cccc5F)=NC6)cc4)cccc3C2=O)C(=O)N1` (stereo not drawn) [UB-180504], for which the values for the EC50 in experiment [1] and in experiment [2] were 100 to 1000 nM and 10 to 100 nM, respectively.

For the molecule `O=C1CCC(N2Cc3c(NC(=O)COCCNC(=O)c4ccc(Nc5ncc6c(n5)-c5ccc(Cl)cc5C(c5c(F)cccc5F)=NC6)cc4)cccc3C2=O)C(=O)N1` (stereo not drawn) [UB-180509], the EC50 in experiment [1] and in experiment [2] was above 1000 nM throughout.

Take `O=C1CCC(N2Cc3c(NC(=O)COCCOCCOCCNC(=O)c4ccc(Nc5ncc6c(n5)-c5ccc(Cl)cc5C(c5c(F)cccc5F)=NC6)cc4)cccc3C2=O)C(=O)N1` (stereo not drawn) [UB-180520]: the EC50 in experiment [1] is above 1000 nM; in experiment [2], 10 to 100 nM.

For the molecule `O=C1CCC(N2Cc3c(NC(=O)CCOCCOCCOCCOCCNC(=O)c4ccc(Nc5ncc6c(n5)-c5ccc(Cl)cc5C(c5c(F)cccc5F)=NC6)cc4)cccc3C2=O)C(=O)N1` (stereo not drawn) [UB-180530], the half-maximal effective concentration (EC50) in experiment [1] is above 1000 nM; in experiment [2], 10 to 100 nM.

As to `O=C1CCC(N2Cc3c(NC(=O)COCCOCCOCCOCCNC(=O)c4ccc(Nc5ncc6c(n5)-c5ccc(Cl)cc5C(c5c(F)cccc5F)=NC6)cc4)cccc3C2=O)C(=O)N1` (stereo not drawn) [UB-180534], the figures for the EC50 in experiment [1] and in experiment [2] were above 1000 nM and 10 to 100 nM, respectively.

Regarding `O=C1CCC(N2Cc3c(NC(=O)COCCOCCNC(=O)c4ccc(Nc5ncc6c(n5)-c5ccc(Cl)cc5C(c5c(F)cccc5F)=NC6)cc4)cccc3C2=O)C(=O)N1` (stereo not drawn) [UB-180559], the figures for the EC50 in experiment [1] and in experiment [2] were above 1000 nM and 100 to 1000 nM, respectively.

Regarding `O=C1CCC(N2Cc3c(NC(=O)COCCOCCNC(=O)[C@]4(Cc5cccc(Nc6nccs6)n5)CC[C@@H](Oc5cccc(Cl)c5F)CC4)cccc3C2=O)C(=O)N1` (stereo partly drawn) [UB-180572], the EC50 in experiment [1] and in experiment [2] was above 1000 nM in each case.

With `O=C1CCC(N2Cc3c(NC(=O)COCCOCCOCCNC(=O)[C@]4(Cc5cccc(Nc6nccs6)n5)CC[C@@H](Oc5cccc(Cl)c5F)CC4)cccc3C2=O)C(=O)N1` (stereo partly drawn) [UB-180573], the EC50 in experiment [1] and in experiment [2] was above 1000 nM throughout.

Take `O=C1CCC(N2Cc3c(NC(=O)CCCNC(=O)[C@]4(Cc5cccc(Nc6nccs6)n5)CC[C@@H](Oc5cccc(Cl)c5F)CC4)cccc3C2=O)C(=O)N1` (stereo partly drawn) [UB-180574]: the EC50 in experiment [1] and in experiment [2] was above 1000 nM in each case.

Consider `O=C1CCC(N2Cc3c(NC(=O)CCOCCOCCOCCOCCNC(=O)[C@]4(Cc5cccc(Nc6nccs6)n5)CC[C@@H](Oc5cccc(Cl)c5F)CC4)cccc3C2=O)C(=O)N1` (stereo partly drawn) [UB-180575], for which the EC50 in experiment [1] is above 1000 nM; in experiment [2] it was 10 to 100 nM.

`O=C1CCC(N2Cc3c(NC(=O)COCCNC(=O)[C@]4(Cc5cccc(Nc6nccs6)n5)CC[C@@H](Oc5cccc(Cl)c5F)CC4)cccc3C2=O)C(=O)N1` (stereo partly drawn) [UB-180577]: the EC50 in experiment [1] and in experiment [2] was above 1000 nM each time.

Consider `O=C1CCC(N2Cc3c(NC(=O)COCCOCCOCCOCCNC(=O)[C@]4(Cc5cccc(Nc6nccs6)n5)CC[C@@H](Oc5cccc(Cl)c5F)CC4)cccc3C2=O)C(=O)N1` (stereo partly drawn) [UB-180582], for which the EC50 was above 1000 nM in experiment [1] and 10 to 100 nM in experiment [2].

For `O=C1CCC(N2Cc3c(NC(=O)COCCCCNC(=O)[C@]4(Cc5cccc(Nc6nccs6)n5)CC[C@@H](Oc5cccc(Cl)c5F)CC4)cccc3C2=O)C(=O)N1` (stereo partly drawn) [UB-180586], the EC50 in experiment [1] and in experiment [2] was above 1000 nM each time.

With `O=C1CCC(N2Cc3c(NC(=O)COCCCNC(=O)[C@]4(Cc5cccc(Nc6nccs6)n5)CC[C@@H](Oc5cccc(Cl)c5F)CC4)cccc3C2=O)C(=O)N1` (stereo partly drawn) [UB-180588], the EC50 in experiment [1] and in experiment [2] was above 1000 nM each time.

For the molecule `O=C1CCC(N2Cc3c(NC(=O)CCOCCOCCNC(=O)[C@]4(Cc5cccc(Nc6nccs6)n5)CC[C@@H](Oc5cccc(Cl)c5F)CC4)cccc3C2=O)C(=O)N1` (stereo partly drawn) [UB-180590], the EC50 in experiment [1] and in experiment [2] was above 1000 nM in each case.

Regarding `O=C1CCC(N2Cc3c(NC(=O)CCOCCCOCCOCCNC(=O)c4ccc(Nc5ncc6c(n5)-c5ccc(Cl)cc5C(c5c(F)cccc5F)=NC6)cc4)cccc3C2=O)C(=O)N1` (stereo not drawn) [UB-180610], the EC50 in experiment [1] is above 1000 nM; in experiment [2], 10 to 100 nM.

With `O=C1CCC(N2Cc3c(NC(=O)CCOCCCOCCOCCNC(=O)[C@]4(Cc5cccc(Nc6nccs6)n5)CC[C@@H](Oc5cccc(Cl)c5F)CC4)cccc3C2=O)C(=O)N1` (stereo partly drawn) [UB-180611], the EC50 in experiment [1] is above 1000 nM; in experiment [2], 10 to 100 nM.

As to `O=C1CCC(N2Cc3c(NC(=O)CCNC(=O)[C@]4(Cc5cccc(Nc6nccs6)n5)CC[C@@H](Oc5cccc(Cl)c5F)CC4)cccc3C2=O)C(=O)N1` (stereo partly drawn) [UB-180616], the EC50 in experiment [1] and in experiment [2] was above 1000 nM throughout.

Take `O=C1CCC(N2Cc3c(NC(=O)CCNC(=O)c4ccc(Nc5ncc6c(n5)-c5ccc(Cl)cc5C(c5c(F)cccc5F)=NC6)cc4)cccc3C2=O)C(=O)N1` (stereo not drawn) [UB-180617]: the EC50 in experiment [1] and in experiment [2] was above 1000 nM each time.

On to `Cc1sc2c(c1C)C(c1ccc(Cl)cc1)=N[C@@H](CC(=O)NCCCNCCCCCCC(=O)Nc1cccc3c1CN(C1CCC(=O)NC1=O)C3=O)c1nnc(C)n1-2` (stereo partly drawn) [UB-180629], for which the EC50 is above 1000 nM in experiment [1] and 100 to 1000 nM in experiment [2].

For `Cc1sc2c(c1C)C(c1ccc(Cl)cc1)=N[C@@H](CC(=O)NCCCNCCCCCCCC(=O)Nc1cccc3c1CN(C1CCC(=O)NC1=O)C3=O)c1nnc(C)n1-2` (stereo partly drawn) [UB-180630], the EC50 in experiment [1] is above 1000 nM; in experiment [2], 100 to 1000 nM.

As to `Cc1sc2c(c1C)C(c1ccc(Cl)cc1)=N[C@@H](CC(=O)NCCOCCOCCOCCNCCC(=O)Nc1cccc3c1CN(C1CCC(=O)NC1=O)C3=O)c1nnc(C)n1-2` (stereo partly drawn) [UB-180635], in experiment [1], the EC50 is above 1000 nM.

For `Cc1sc2c(c1C)C(c1ccc(Cl)cc1)=N[C@@H](CC(=O)NCCCNCCCC(=O)Nc1cccc3c1CN(C1CCC(=O)NC1=O)C3=O)c1nnc(C)n1-2` (stereo partly drawn) [UB-180640], the 50% effective concentration (EC50) in experiment [1] is above 1000 nM; in experiment [2] it was 100 to 1000 nM.

Turning to `Cc1sc2c(c1C)C(c1ccc(Cl)cc1)=N[C@@H](CC(=O)NCCCNCCCCC(=O)Nc1cccc3c1CN(C1CCC(=O)NC1=O)C3=O)c1nnc(C)n1-2` (stereo partly drawn) [UB-180641], the EC50 in experiment [1] was above 1000 nM; in experiment [2] it was 100 to 1000 nM.

With `Cc1sc2c(c1C)C(c1ccc(Cl)cc1)=N[C@@H](CC(=O)NCCCNCCCCCC(=O)Nc1cccc3c1CN(C1CCC(=O)NC1=O)C3=O)c1nnc(C)n1-2` (stereo partly drawn) [UB-180642], the values for the EC50 in experiment [1] and in experiment [2] were above 1000 nM and 100 to 1000 nM, respectively.

For `Cc1sc2c(c1C)C(c1ccc(Cl)cc1)=N[C@@H](CC(=O)NCCOCCOCCOCCNCCCC(=O)Nc1cccc3c1CN(C1CCC(=O)NC1=O)C3=O)c1nnc(C)n1-2` (stereo partly drawn) [UB-180648], the EC50 in experiment [1] was above 1000 nM.

`CC[C@@H]1C(=O)N(C)c2cnc(Nc3ccc(C(=O)NCCNCCOCCOCCOCCC(=O)Nc4cccc5c4CN(C4CCC(=O)NC4=O)C5=O)cc3OC)nc2N1C1CCCC1` (stereo partly drawn) [UB-180820]: the EC50 in experiment [2] lay in the range of 10 to 100 nM.

`O=C1CCC(N2Cc3c(NC(=O)CCNCCOC4CCN(CCOCCNC(=O)c5ccc(Nc6ncc7c(n6)-c6ccc(Cl)cc6C(c6c(F)cccc6F)=NC7)cc5)CC4)cccc3C2=O)C(=O)N1` (stereo not drawn) [UB-180821] showed an EC50 in experiment [2] above 1000 nM.

`O=C1CCC(N2Cc3c(NC(=O)CCNCCn4cc(COCCNC(=O)c5ccc(Nc6ncc7c(n6)-c6ccc(Cl)cc6C(c6c(F)cccc6F)=NC7)cc5)nn4)cccc3C2=O)C(=O)N1` (stereo not drawn) [UB-180822] displayed an EC50 in experiment [2] above 1000 nM.

For `CC[C@@H]1C(=O)N(C)c2cnc(Nc3ccc(C(=O)NC4CCN(CCOCCN(CC)CC(=O)Nc5cccc6c5CN(C5CCC(=O)NC5=O)C6=O)CC4)cc3OC)nc2N1C1CCCC1` (stereo partly drawn) [UB-180828], the EC50 was 100 to 1000 nM in experiment [1] and below 10 nM in experiment [2].

Molecule `CC[C@@H]1C(=O)N(C)c2cnc(Nc3ccc(C(=O)NC4CCN(CCOCCN(CC(=O)Nc5cccc6c5CN(C5CCC(=O)NC5=O)C6=O)C(=O)OC)CC4)cc3OC)nc2N1C1CCCC1` (stereo partly drawn) [UB-180833] displayed an EC50 in experiment [2] of 10 to 100 nM.

`CC[C@@H]1C(=O)N(C)c2cnc(Nc3ccc(C(=O)NC4CCN(CCOCCN(C=O)CC(=O)Nc5cccc6c5CN(C5CCC(=O)NC5=O)C6=O)CC4)cc3OC)nc2N1C1CCCC1` (stereo partly drawn) [UB-180834] showed an EC50 in experiment [2] of 10 to 100 nM.

`CC[C@@H]1C(=O)N(C)c2cnc(Nc3ccc(C(=O)NC4CCN(CCOCCN(CC(=O)Nc5cccc6c5CN(C5CCC(=O)NC5=O)C6=O)C(C)=O)CC4)cc3OC)nc2N1C1CCCC1` (stereo partly drawn) [UB-180835]: in experiment [2], the EC50 is 10 to 100 nM.

In experiment [2], `CN(CCOCCOCCOCCNC(=O)[C@]1(Cc2cccc(Nc3nccs3)n2)CC[C@@H](Oc2cccc(Cl)c2F)CC1)CC(=O)Nc1cccc2c1CN(C1CCC(=O)NC1=O)C2=O` (stereo partly drawn) [UB-180836] showed a concentration giving a half-maximal response (EC50) of 100 to 1000 nM.

With `CC[C@@H]1C(=O)N(C)c2cnc(Nc3ccc(C(=O)NC4CCN(CCOCCN(CC(=O)Nc5cccc6c5CN(C5CCC(=O)NC5=O)C6=O)C(N)=O)CC4)cc3OC)nc2N1C1CCCC1` (stereo partly drawn) [UB-180840], the EC50 in experiment [2] is 10 to 100 nM.
